Assay [1] concerns Fas phospho-Y291. The experiment in a line: Western blot of Fas tyrosine 291 phosphorylation in MRC5 lung fibroblasts. In kind it is cell-based, human. Conditions: pervanadate 150 μM, time dependent. As for the experimental part:
PTPN13 has been shown in astrocytoma cells to dephosphorylate Fas at tyrosine 291. Little is known about the regulatory function of tyrosine phosphorylation of Fas. In another exemplary embodiment, to assess the effect of TNF-α and IFN-γ sensitization on the levels of Fas tyrosine phosphorylation, MRC5 lung fibroblasts were treated with TNF-α and IFN-γ for increasing amounts of time. Because TNF-α is known to increase tyrosine phosphorylation of many proteins, such as MAP kinases and AKT, within minutes following stimulation, the kinetics of TNF-α and IFN-γ induced tyrosine phosphorylation of Fas were assessed. MRC5 lung fibroblasts were treated with TNF-α (10 ng/ml) and IFN-γ (50 U/ml) for up to 48 hours. The cells were lysed and analyzed by western blot for phosphorylated Fas, using a phospho-specific antibody for Fas phosho-Y291. TNF-α and IFN-γ increased tyrosine phosphorylation of Fas at tyrosine residue 291 beginning at 18 hours. […] The pervanadate treated MRC5 cells were lysed and analyzed the tyrosine phosphorylation of Fas by western blotting. […] We then detected phosphorylated Fas by Western blot, using a phospho-specific antibody for Fas tyrosine residue 291. […]
FIG. 5: Inhibition of tyrosine phosphatase activity sensitizes lung fibroblasts to Fas-induced apoptosis. […] Caspase-8 activation was measured by a fluorescence based assay. […]

The subject of assay [2] is caspase-8. Put plainly: Caspase-8 activation (Fas-induced apoptosis) in lung fibroblasts. Type of assay: cell-based, human. As to conditions: MRC5. As for the experimental part: To assess the effects of these cytokines on PTPN13 expression, non-diseased normal human lung fibroblasts (NHLF), fibrotic human lung fibroblasts (FHLF) and a fetal lung fibroblast cell line, MRC5 cells, were treated with TNF-α (10/ng/ml), IFN-γ (50 U/ml) or with both cytokines for 6 hours. PTPN13 expression was measured by quantitative PCR (FIG. 2A). The primary lung fibroblasts from normal and fibrotic lung had equivalent levels of PTPN13 expression to the MRC5 lung fibroblast cell line. […] Treatment with TNF-α alone caused a 40% decrease in PTPN13 expression. Combined exposure to TNF-α and IFN-γ decreased PTPN13 mRNA expression by 80%. Protein lysates from normal, fibrotic and MRC5 fibroblasts treated for 36 hours with TNF-α (10/ng/ml), IFN-γ (50 U/ml) or with both cytokines were then analyzed for PTPN13 expression. […]
In one exemplary method, to assess whether PTPN13 expression prevents Fas-induced apoptosis, PTPN13 expression was knocked-down using siRNA. […] Apoptosis was assayed by quantifying activation of caspase-3 and caspase-8 (FIG. 3C).
In death-receptor mediated apoptosis, formation of the DISC (Death-Inducing Signaling Complex) is essential for the initiation of apoptosis. […] The cells were lysed, immunoprecipitated with anti-Fas antibody, and co-immunoprecipitated FADD and caspase-8 were detected by immunoblotting. […]

In the case of pervanadate, the “tyrosine phosphorylation of Fas” value in assay [1] was “increased”. Further, in assay [2] (150 μM pervanadate 2 hour pre-treatment, then Fas-activating antibody 250 ng/ml), the “increase in caspase-8 activity over unstimulated cells” value was 6 fold. Also, the “increase in caspase-8 activity above untreated cells” value in assay [2] (150 μM pervanadate alone) is reported as 2 fold.

For the origin of these results see patent US20190336579A1, “COMPOSITIONS AND METHODS TO INDUCE TARGETED APOPTOSIS BY MODULATING PROTEIN TYROSINE PHOSPHATASE 13 (PTPN13)” (National Jewish Health, priority 2010, published 2019).
